The values below come from paper PMC5228037, “Discovery and Mechanistic Characterization of Selective Inhibitors of H2S-producing Enzyme: 3-Mercaptopyruvate Sulfurtransferase (3MST) Targeting Active-site Cysteine Persulfide” (Scientific Reports, 2017).

The data set concerns the target T1, 3MST-overexpressing COS7 cells (Mus musculus, UniProt Q99J99).
T1 construct: expressed in transfected cells; host or cells: COS7 (transient)
T1 sequence (Q99J99 1-297): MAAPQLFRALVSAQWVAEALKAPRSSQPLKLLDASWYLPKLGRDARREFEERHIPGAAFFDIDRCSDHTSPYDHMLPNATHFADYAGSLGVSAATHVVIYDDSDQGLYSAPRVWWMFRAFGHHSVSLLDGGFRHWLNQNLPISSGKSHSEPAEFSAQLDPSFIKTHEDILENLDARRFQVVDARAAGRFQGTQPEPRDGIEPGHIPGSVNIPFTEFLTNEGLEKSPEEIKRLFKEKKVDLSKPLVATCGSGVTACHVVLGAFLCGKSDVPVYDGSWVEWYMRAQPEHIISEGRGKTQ
Nature of the data set: Live-cell fluorescence imaging with SSP4 in 3MST-overexpressing COS7 cells. Type of data set: cell-based. The method, then:
Figure 2 Selectivity assessment of hit compounds for 3MST over other H2S/polysulfides-producing enzymes and rhodanese. (a) 3MST-Inhibitory activity of hit compounds at 10 and 100 μM in cell lysate of 3MST-expressing HEK293 cells. 100 μM 3MP and 100 μM DTT were added to the solution containing 0.1% DMSO as a cosolvent, and the mixture was incubated at 37 °C for 15 min. H2S production was measured by gas chromatography. All data are presented as the mean ± S.D. (100 μM: n = 3 or 4; 10 μM: n = 3). (b) Selectivity assessment of hit compounds at 100 μM towards CBS and CSE. Only DMSO was added to the control sample instead of DMSO solution containing hit compounds. H2S production was monitored by gas chromatography. All data are presented as the mean (n = 3). (c) Detection method for rhodanese activity (Sörbo method). (d) Selectivity assessment of hit compounds towards rhodanese. The results are mean ± S.D. (n = 4, three times). These values were determined based upon the absorbance of [Fe(SCN)3] at 460 nm (Sӧrbo method). […] (e) Fluorescence confocal microscopic images of live COS7 cells transfected with 3MST or an empty vector[9] as a control. […] F/F0 was calculated by dividing the fluorescence intensity of cells after addition of 500 μM 3MP (10 min) by that of cells before addition of 500 μM 3MP (Pre), then the mean F/F0 was determined from 5 cells. […]

SMILES strings stand for the structures.

`Cc1cc(=O)[nH]c(SCC(=O)c2cccc3ccccc23)n1` [compound 3]: the “3MST activity in living cells (SSP4 sulfane sulfur fluorescence after 500 μM 3MP)” value (1 μM compound, 3MST-overexpressing COS7 cells) is recorded as “almost completely suppressed”. In addition, the Cell-membrane permeability entry (concluded from suppression of 3MST activity in live COS7 cells) is “cell-membrane permeable”.
